Results published in patent US8765726B2, “Use of pyridone derivatives in the prevention or treatment of tissue or organ toxicity induced by cytotoxic agents and radiation” (Shanghai Genomics, Inc., priority 2006, dated 2014).

Legend:
[1] = test system: Adriamycin-induced renal toxicity; experiment: Adriamycin-induced renal toxicity in rats (urine proteins, renal pathology); format: in vivo, Wistar rats; settings: Adriamycin 7.5 mg/kg tail vein day 1, F351 250 mg/kg per day gavage for 12 weeks
Experimental: 20 male Wistar rats (with body weight 180-220 g) were randomly divided into three groups with 4 rats in control group, 8 rats in Adriamycin-treated group, and 8 rats in Adriamycin+F351-treated group. All the animals (except for those in control group) were injected with 7.5 mg/kg adriamycin by tail vein injection on day 1 of the study. Animals in Adriamycin+F351-treated group were administrated by gauvage with 250 mg/kg F351 per day for 12 weeks starting on day 1 of the study. Animals in the control group were injected with PBS, instead. The study lasted for 12 weeks.
Rat urine was collected 24 hours before the end of the study and amount of urine proteins was determined. Renal tissues were also collected for pathology examination.
20 male Wistar rats (with body weight 180-220 g) were randomly divided into three groups with 4 rats in control group, 8 rats in Adriamycin-treated group, and 8 rats in Adriamycin+F351-treated group. All the animals (except for those in control group) were injected with 7.5 mg/kg adriamycin by tail vein injection at day 1 of the study. Animals in control group were injected with PBS instead. Animals in Adriamycin+F351-treated group were administrated by gauvage with 250 mg/kg F351 per day for 12 weeks starting on day 1.

[2] = test system: Bleomycin-induced lung fibrosis; experiment: Bleomycin-induced lung fibrosis in mice (pathology, lung index); format: in vivo, C57B6 mice; settings: Bleomycin 5 mg/kg intratracheal day 1, F351 100 mg/kg/day or dexamethasone 3 mg/kg per day gavage for 28 days
Experimental: Forty eight (48) C57B6 mice (with body weight 16-18 g), half male and half female, were used in the study. Animals were divided into four groups with 12 animals per group. All the animals (except for those in control group) were injected with 5 mg/kg Bleomycin in the volume of 50 ul by intratracheal instillation on day 1 of the study. Animals in control group were injected by PBS instead. […] Pathology examination was performed at day 28.

[3] = test system: radiation-induced lung injuries; experiment: Example 1 repeated with F351 on radiation-induced lung injuries; format: in vivo; settings: Prophylactic and therapeutic administration, irradiated mice, twenty per group; 'should show'
Excerpt: The experiments in Example 1 are repeated, except that 5-methylpyridin-1(4-hydroxyphenyl)-2-(1H)-one (F351) rather than Pirfenidone is used, with twenty mice in each group.

[4] = test system: Cyclosporine A-induced nephrotoxicity; experiment: Cyclosporine A-induced nephrotoxicity in rats (mean arterial pressure, kidney fibrosis score); format: in vivo, Wistar rats; settings: CsA 15 mg/kg subcutaneous + F351 100 mg/Kg/day, once a day for 28 days, low salt diet
Experimental: 24 male Wistar rats (with body weight 180-220 g) were given low salt diet for 7 days before the study and randomly divided into three groups with 8 rats per group. The groups were named as control group, cyclosporine A (CsA)-treated group, and CsA+[…]-treated group. [table] The animals were treated once a day for 28 days as indicated in the above table. Once every 7 days, the animals were weighed and the dose of CsA and […] were adjusted in terms of body weight. Low salt diet was given to the animals during the whole study period. Mean arterial pressure was determined in alert state of the animals at the end of the study. Renal tissues were also collected for pathology examination.

[5] = test system: radiation-induced lung injuries; experiment: Tolerance to the therapeutic irradiation dosage, prophylactic Pirfenidone in irradiated mice; format: in vivo; settings: Prophylactic administration, 200 mg/kg gavage once a day started 2 days before irradiation
Experimental: (a) Method: the Same as Described in Example 1. Prophylaxis group (60 mice): The medication was started 2 days before the irradiation. The mice were divided into two groups. The animals were administered by gauvage with Pirfenidone (200 mg/kg, dissolved in 0.5% CMC-Na and administrated at the volume of 0.1 ml/10 g) once a day for 3 months. Each group consisted of 60 mice. The mice of each group were observed once a day after irradiation to examine the dyspnea and mortality. The lung weighing, cytometry and cell sorting of the bronchial alveolar lavage liquid, collagen content measurement (hydroxyproline), measurement of cytokines (ACE, TGF-β, TGF-α etc) in the plasma, and pathomorphological observation were conducted periodically after the medicament treatment.

[6] = test system: radiation-induced lung fibrosis; experiment: Prevention and/or treatment of radiation-induced lung fibrosis in mice (macrophages, fibrosis evaluation, hydroproline); format: in vivo, BalB/C male mice; settings: for Cytometry of macrophages / Evaluation on lung fibrosis / Hydroproline level: P + R group: 200 mg/kg/day from two days before 1200 cGy chest radiation for 12 weeks
Experimental: BalB/C male mice were randomly divided into three groups, namely, Control group (C group), Radiation group (R group), and Pirfenidone+Radiation (P+R group). All the animals were given single dose radiation on chest at 1200 cGy. Drugs were administrated two days before radiation for 12 weeks at 200 mg/kg/day. Examination includes cytometry of macrophages (performed 4 weeks and 8 weeks after drug administration), determination of hydroproline level (performed 16 weeks and 24 weeks after drug administration), and pathology examination of lung tissues by HE staining and Masson staining and evaluation of lung fibrosis by Ashcroft semi-quantitative evaluation standard under a microscope (performed 16 weeks and 24 weeks after drug administration).

[7] = test system: radiation-induced lung injuries; experiment: Radiation-induced lung injuries in mice (bronchial alveolar lavage cell count, whole-lung hydroxyproline); format: in vivo, BALB/C mice; design: unit not given here; settings: 1200 cGy chest
Excerpt: Irradiation source: Varian 600C linear accelerator, 6MV X ray
Irradiation method: The mice, six per row, were each detained in an organic-glass cage. The cage was lid with a 1.5 cm thick organic glass plate to compensate the buildup effect. The source-to-skin distance was 100 cm, the irradiation field was 2.5×18 cm. The animal's head and abdomen were sheltered by the lead baffle of the collimator, and thus only the chest was exposed to the irradiation. The single dose of irradiation is 1200 cGy. A sealed transfer box equipped with an air filtering device should be used to transfer the animals from or back to the animal house.
Animals: 10-week old BALB/C mice
Control Model group (60 mice): The mice were irradiated but not treated with the compound.
Prophylaxis group (60 mice): The medication at a predetermined dose was started 2 days before the irradiation. The irradiation method and the dosage were the same as in the control group. Pirfenidone was administered by gauvage (200 mg/kg, dissolved in 0.5% CMC-Na and administrated at the volume of 0.1 ml/10 g) once a day for 3 months.
Treatment group (60 mice): The medication was started at day 0 of the irradiation. The irradiation method and dosage were the same as in the control group. Pirfenidone was administered by gauvage (200 mg/kg, dissolved in 0.5% CMC-Na and administrated at the volume of 0.1 ml/10 g) once a day for 3 months.
Blank control group (60 mice): The mice were not irradiated, and were only administered by gauvage with 0.5% CMC-Na once a day for 3 months.
The mice of each group were observed once a day after irradiation to examine the mortality. The cytometry and cell sorting of the lavage, collagen content measurement (hydroxyproline), pathomorphological observation were conducted periodically after medicament treatment.
Cytometry of the bronchial alveolar lavage liquid: the right lung was perfused with normal saline. 1.5-2.0 ml lavage liquid was collected into an Ependoff tube by gentle suction. The content of the inflammatory cells was counted manually by use of a haemocytometer immediately after collection of the bronchial alveolar lavage liquid.
Measurement of the hydroxyproline content: The measurement was performed with isolated lung tissue by following the instruction in the hydroxyproline kit.
Histopathologic examination: The isolated lung tissue was fixed in formaldehyde solution, pafarrin-imbeded after dehydration, and then subjected to HE staining and Masson trichrome staining. Evaluation criteria: Radiation-induced lung injuries was evaluated according to the standard semi-quantitative scoring of the Ashcroft interstitial pulmonary fibrosis.

[8] = Blood level of Pirfenidone capsule in healthy subjects on repeated dosing; format: in vivo, human; settings: Twelve healthy subjects, capsule 400 mg once a day or three times a day for 5 days
Experimental: Twelve healthy subjects were administered with Pirfenidone capsule at the dose of 400 mg, once a day or three times a day. The medication continued for 5 days. The blood level of the medicine was measured every day.

[9] = test system: bleomycin-induced lung fibrosis; experiment: Bleomycin-induced lung fibrosis in rat: side effects of dexamethasone compared with pirfenidone
Excerpt: Dexamethasone treatment was used as positive control in one study was designed to investigate the effects of pirfenidone on bleomycin-induced lung fibrosis in rat.

[10] = Prophylaxis group: 200 mg/kg gavage once a day started 2 days before irradiation, Month 2
[11] = Prophylaxis group: 200 mg/kg gavage once a day started 2 days before irradiation, Month 3
[12] = Prophylaxis group: 200 mg/kg gavage once a day started 2 days before irradiation, Month 4
[13] = Prophylaxis group: 200 mg/kg gavage once a day started 2 days before irradiation, Month 5
[14] = Prophylaxis group: 200 mg/kg gavage once a day started 2 days before irradiation, Month 6
[15] = Treatment group: 200 mg/kg gavage once a day from day 0 of irradiation, Month 2
[16] = Treatment group: 200 mg/kg gavage once a day from day 0 of irradiation, Month 3
[17] = Treatment group: 200 mg/kg gavage once a day from day 0 of irradiation, Month 4
[18] = Treatment group: 200 mg/kg gavage once a day from day 0 of irradiation, Month 5
[19] = Treatment group: 200 mg/kg gavage once a day from day 0 of irradiation, Month 6
[20] = Bleomycin-treated rats plus test drug

**Q.** For `Cc1ccc(=O)n(-c2ccc(O)cc2)c1` [F351, 5-methyl-1-(4-hydroxylphenyl)-2-(1H)-pyridone], which “Degree of kidney fibrosis by pathology examination” value [1] is on record?
**A.** reduced the degree of kidney fibrosis

**Q.** And the “Amount of Urine Proteins” value ([1]; x ± s)?
**A.** 54.32 ± 10.88 mg/24 hrs

**Q.** And the “Lung Index (±S)” value [2]?
**A.** 1511.71 ± 945.55

**Q.** And the “Pathological changes of the lung (pathology examination, HE and Masson staining)” value ([2]; day 28)?
**A.** significant improvement

**Q.** What about the “Amount of inflammatory cells in the bronchial alveolar lavage liquid” value [3] of the same compound?
**A.** reduce the amount of inflammatory cells

**Q.** What about the “Score on Kidney Fibrosis” value [4] of the same compound?
**A.** 0.62 ± 0.15

**Q.** And the “Mean Arterial Pressure” value ([4]; x ± s)?
**A.** 16.02 ± 0.27 kPa

**Q.** What does the source list for `Cc1ccc(=O)n(-c2ccccc2)c1` [Pirfenidone]?
**A.** Cell count in the bronchial alveolar lavage liquid versus control group [5]: lower than that of the control group; Toxic effect on BalB/C mice ([6]; 200 mg/kg/day for 12 weeks): little toxic effect; Cytometry of macrophages ([6]; 4 weeks): 6.67 ± 2.04 1 × 10^4/ml; Cytometry of macrophages ([6]; 8 weeks): 2.27 ± 1.41 1 × 10^4/ml; Evaluation on lung fibrosis ([6]; 16 weeks): 29.15 ± 18.74; Hydroproline level ([6]; 16 weeks): 67.65 ± 11.99 µg/mg; Evaluation on lung fibrosis ([6]; 24 weeks): 19.46 ± 6.67; Hydroproline level ([6]; 24 weeks): 79.15 ± 10.90 µg/mg; Measurement of hydroxyproline in the whole lung ([7]; Prophylaxis group: 200 mg/kg gavage once a day started 2 days before irradiation, Month 1): 43.85; Cell count of bronchial alveolar lavage liquid [7, 10]: 2.27; Measurement of hydroxyproline in the whole lung [7, 10]: 43.81; Cell count of bronchial alveolar lavage liquid [7, 11]: 2.03; Measurement of hydroxyproline in the whole lung [7, 11]: 50.46; Cell count of bronchial alveolar lavage liquid [7, 12]: 4.5; Measurement of hydroxyproline in the whole lung [7, 12]: 56.98; Cell count of bronchial alveolar lavage liquid [7, 13]: 27.7; Measurement of hydroxyproline in the whole lung [7, 13]: 58.1; Cell count of bronchial alveolar lavage liquid [7, 14]: 15; Measurement of hydroxyproline in the whole lung [7, 14]: 58.15; Measurement of hydroxyproline in the whole lung ([7]; Treatment group: 200 mg/kg gavage once a day from day 0 of irradiation, Month 1): 36.11; Cell count of bronchial alveolar lavage liquid [7, 15]: 5.78; Measurement of hydroxyproline in the whole lung [7, 15]: 46.36; Cell count of bronchial alveolar lavage liquid [7, 16]: 1.04; Measurement of hydroxyproline in the whole lung [7, 16]: 52.13; Cell count of bronchial alveolar lavage liquid [7, 17]: 8.04; Measurement of hydroxyproline in the whole lung [7, 17]: 60.38; Cell count of bronchial alveolar lavage liquid [7, 18]: 45.55; Measurement of hydroxyproline in the whole lung [7, 18]: 67.92; Cell count of bronchial alveolar lavage liquid [7, 19]: 39.29; Measurement of hydroxyproline in the whole lung [7, 19]: 68.24; Day on which blood stasis was achieved (blood level of the medicine) [8]: 3 days

**Q.** For `C[C@@H]1C[C@H]2[C@@H]3CCC4=CC(=O)C=C[C@]4(C)[C@@]3(F)[C@@H](O)C[C@]2(C)[C@@]1(O)C(=O)CO` [dexamethasone], which “Lung Index (±S)” value [2] is on record?
**A.** 1083.90 ± 289.66

**Q.** What about the Mortality rate [9, 20] of the same compound?
**A.** 64.3%

**Q.** What about the “Number of dead animal” value [9, 20] of the same compound?
**A.** 9/14

**Q.** What about the Body weight ([9]; rat, in vivo) of the same compound?
**A.** Loss of body weight
